Data from ChEMBL document CHEMBL1667853, “Design and synthesis of potent Gram-negative specific LpxC inhibitors” (Bioorg Med Chem Lett, 2011).
≈ marks a conversion by molar mass, not a printed value.

Legend:
Acinetobacter baumannii = assay: Antimicrobial activity against wild type Acinetobacter baumannii by broth dilution assay; type: functional
Pseudomonas aeruginosa [1] = assay: Antimicrobial activity against multidrug-resistant Pseudomonas aeruginosa by broth dilution assay; type: functional
Klebsiella pneumoniae [2] = assay: Antimicrobial activity against ESBL producing Klebsiella pneumoniae by broth dilution assay; type: functional
Escherichia coli [3] = assay: Antimicrobial activity against wild type Escherichia coli by broth dilution assay; type: functional
Escherichia coli [4] = assay: Antimicrobial activity against multidrug-resistant Escherichia coli by broth dilution assay; type: functional
Escherichia coli [5] = assay: Antimicrobial activity against ESBL producing Escherichia coli by broth dilution assay; type: functional
[6] = tested on: Acinetobacter calcoaceticus; assay: Antimicrobial activity against wild type Acinetobacter calcoaceticus by broth dilution assay; type: functional
[7] = tested on: Stenotrophomonas maltophilia; assay: Antimicrobial activity against wild type Stenotrophomonas maltophilia by broth dilution assay; type: functional
Escherichia coli [8] = assay: Antimicrobial activity against Escherichia coli ATCC 25922 by broth dilution assay; type: functional
Escherichia coli [9] = assay: Antimicrobial activity against Escherichia coli HS294 by broth dilution assay; type: functional
Enterobacter cloacae = assay: Antimicrobial activity against ESBL producing Enterobacter cloacae by broth dilution assay; type: functional
Klebsiella pneumoniae [10] = assay: Antimicrobial activity against wild type Klebsiella pneumoniae by broth dilution assay; type: functional
Proteus vulgaris = assay: Antimicrobial activity against wild type Proteus vulgaris by broth dilution assay; type: functional
Klebsiella aerogenes = assay: Antimicrobial activity against wild type Enterobacter aerogenes by broth dilution assay; type: functional
Serratia marcescens = assay: Antimicrobial activity against wild type Serratia marcescens by broth dilution assay; type: functional
Pseudomonas aeruginosa [11] = assay: Antimicrobial activity against wild type Pseudomonas aeruginosa by broth dilution assay; type: functional
[12] = target: T1, UDP-3-O-acyl-N-acetylglucosamine deacetylase (Escherichia coli K-12, UniProt P0A725); assay: Inhibition of Escherichia coli LpxC
T1 sequence (P0A725 whole entry): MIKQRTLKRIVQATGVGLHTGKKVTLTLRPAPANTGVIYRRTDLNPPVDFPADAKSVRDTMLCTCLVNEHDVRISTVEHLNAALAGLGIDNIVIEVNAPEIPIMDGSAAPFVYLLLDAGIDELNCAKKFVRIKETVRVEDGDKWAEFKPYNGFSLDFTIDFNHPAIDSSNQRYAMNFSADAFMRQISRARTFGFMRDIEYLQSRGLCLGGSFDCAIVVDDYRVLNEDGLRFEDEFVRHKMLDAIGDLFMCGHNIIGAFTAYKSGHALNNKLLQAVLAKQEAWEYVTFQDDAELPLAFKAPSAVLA

[13] = Inhibition of Aquifex aeolicus LpxC

| SMILES | MIC (Acinetobacter baumannii) [µg/mL] | MIC (Pseudomonas aeruginosa [1]) [µg/mL] | MIC (Klebsiella pneumoniae [2]) [µg/mL] | MIC (Escherichia coli [3]) [µg/mL] | MIC (Escherichia coli [4]) [µg/mL] | MIC (Escherichia coli [5]) [µg/mL] | MIC [6] [µg/mL] | MIC [7] [µg/mL] | MIC (Escherichia coli [8]) [µg/mL] | MIC (Escherichia coli [9]) [µg/mL] | MIC (Enterobacter cloacae) [µg/mL] | MIC (Klebsiella pneumoniae [10]) [µg/mL] | MIC (Proteus vulgaris) [µg/mL] | MIC (Klebsiella aerogenes) [µg/mL] | MIC (Serratia marcescens) [µg/mL] | MIC (Pseudomonas aeruginosa [11]) [µg/mL] | IC50 [12] [nM] | Kd [13] [nM] |
| --- | --- | --- | --- | --- | --- | --- | --- | --- | --- | --- | --- | --- | --- | --- | --- | --- | --- | --- |
| C[C@@H](O)[C@@H](NC(=O)c1ccc(C#Cc2ccccc2)cc1)C(=O)NO | > 20 | 0.63 (≈ 1.86 µM) | 0.63 (≈ 1.86 µM) | 0.16 (≈ 0.473 µM) | 0.63 (≈ 1.86 µM) | 0.313 (≈ 0.925 µM) | 1.25 (≈ 3.69 µM) | 5 (≈ 14.8 µM) | 0.08 (≈ 0.236 µM) | 0.02 (≈ 0.0591 µM) | 0.31 (≈ 0.916 µM) | 1.25 (≈ 3.69 µM) | 1.25 (≈ 3.69 µM) | 2.5 (≈ 7.39 µM) | 1.25 (≈ 3.69 µM) | 10 (≈ 29.6 µM) | – | – |
| CC(C)(O)[C@@H](NC(=O)N1CCN(c2ccc(C#Cc3ccccc3)cc2)CC1)C(=O)NO | > 50 | 6.25 (≈ 14.3 µM) | 6.25 (≈ 14.3 µM) | 0.8 (≈ 1.83 µM) | 1.56 (≈ 3.57 µM) | 1.56 (≈ 3.57 µM) | 25 (≈ 57.3 µM) | 25 (≈ 57.3 µM) | 0.8 (≈ 1.83 µM) | 0.1 (≈ 0.229 µM) | 6.25 (≈ 14.3 µM) | 12.5 (≈ 28.6 µM) | 3.13 (≈ 7.17 µM) | 12.5 (≈ 28.6 µM) | 6.25 (≈ 14.3 µM) | > 50 | 0.3 | – |
| CC1(C)S[C@@H]2[C@H](NC(=O)[C@H](N)c3ccccc3)C(=O)N2[C@H]1C(=O)O [AMPICILLIN] | – | > 256 | > 32 | 4 (≈ 11.4 µM) | > 8 | > 32 | – | > 32 | – | – | > 32 | > 32 | – | – | – | 4 (≈ 11.4 µM) | – | – |
| C[C@@H](N)[C@@H](NC(=O)N1CCN(c2ccc(C#Cc3ccccc3)cc2)CC1)C(=O)NO | 25 (≈ 59.3 µM) | 3.13 (≈ 7.43 µM) | 12.5 (≈ 29.7 µM) | 1.56 (≈ 3.7 µM) | 3.13 (≈ 7.43 µM) | 1.56 (≈ 3.7 µM) | 25 (≈ 59.3 µM) | > 50 | 1.56 (≈ 3.7 µM) | 0.4 (≈ 0.949 µM) | 3.13 (≈ 7.43 µM) | 25 (≈ 59.3 µM) | 6.25 (≈ 14.8 µM) | 25 (≈ 59.3 µM) | 12.5 (≈ 29.7 µM) | 12.5 (≈ 29.7 µM) | 0.6 | – |
| CCCCCCCOc1cccc(C(=O)O)c1 | – | – | – | – | – | – | – | – | – | – | – | – | – | – | – | – | – | 2000 |
| C[C@@H](O)[C@@H](NC(=O)N1CCC(c2ccc(-c3ccccc3)cc2)CC1)C(=O)NO | > 100 | > 12.5 | 12.5 (≈ 31.4 µM) | 1.56 (≈ 3.92 µM) | 3.13 (≈ 7.87 µM) | 3.13 (≈ 7.87 µM) | > 100 | > 100 | 6.25 (≈ 15.7 µM) | 0.8 (≈ 2.01 µM) | 3.13 (≈ 7.87 µM) | > 100 | 3.13 (≈ 7.87 µM) | > 100 | 6.25 (≈ 15.7 µM) | 3.13 (≈ 7.87 µM) | 13.8 | – |
